Assay [1] addresses T1, chimeric P2X7/1 receptor 210–217 (Homo sapiens, UniProt Q99572, G211E/I214K/I21V/INS213AAHM/L212V/M24R/N16P/N25R/P210E/Q22R/R20V/S23N/T19I/T217L/Y26L).
T1 construct: expressed in transfected cells; host or cells: Xenopus laevis oocytes (cRNA injection)
T1 sequence (Q99572 with tags, fused parts or gaps N16P/T19I/R20V/I21V/Q22R/S23N/M24R/N25R/Y26L/P210E/G211E/L212V/INS213AAHM/I214K/T217L): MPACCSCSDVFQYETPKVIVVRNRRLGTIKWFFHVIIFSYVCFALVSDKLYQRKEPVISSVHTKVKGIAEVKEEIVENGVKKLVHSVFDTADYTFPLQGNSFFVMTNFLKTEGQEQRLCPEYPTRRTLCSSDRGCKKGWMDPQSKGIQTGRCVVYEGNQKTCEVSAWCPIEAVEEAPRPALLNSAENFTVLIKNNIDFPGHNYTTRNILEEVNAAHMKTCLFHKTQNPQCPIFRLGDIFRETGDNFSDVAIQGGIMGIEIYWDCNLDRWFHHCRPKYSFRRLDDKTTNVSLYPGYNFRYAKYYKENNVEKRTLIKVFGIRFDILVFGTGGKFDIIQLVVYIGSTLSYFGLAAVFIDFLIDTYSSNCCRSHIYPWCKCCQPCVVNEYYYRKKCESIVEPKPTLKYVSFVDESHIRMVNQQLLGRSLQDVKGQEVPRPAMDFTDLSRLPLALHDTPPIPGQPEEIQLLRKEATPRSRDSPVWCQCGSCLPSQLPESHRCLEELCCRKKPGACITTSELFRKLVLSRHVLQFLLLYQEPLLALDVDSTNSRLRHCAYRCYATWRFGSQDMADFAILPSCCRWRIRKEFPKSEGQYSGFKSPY
Put plainly: Two-electrode voltage clamp of ATP-evoked currents in Xenopus oocytes. In kind it is cell-based. A general note: In two-electrode clamp one electrode senses voltage and the other passes current.
Procedure: The production of the correct mutations and absence of coding errors was determined by DNA sequencing (Automated ABI Sequencing Service, University of Leicester, UK). cRNA was generated for the mutants and 50 nl (50 ng) was injected into manually defoliculated stage V Xenopus laevis oocytes using an Inject+Matic microinjector (J.A. Gabay, Inject+Matic, Geneva, Switzerland). Injected oocytes were stored at 16°C in ND96 buffer [in millimolar concentrations, NaCl 96, KCl 2, CaCl2 1.8, MgCl2 1, sodium pyruvate 5, and HEPES 5 (pH 7.6) supplemented with 50 μg/ml gentamycin and 50 μg/ml tetracycline]. Three to seven days postinjection two-electrode voltage clamp recordings were made from oocytes bathed in divalent-free ND96 buffer (in millimolar concentrations, NaCl 96, KCl 2, sodium pyruvate 5, HEPES 5, and 0.1 flufenamic acid, pH 7.6). Oocytes were voltage clamped at a holding potential of −60 mV with a GeneClamp500B amplifier (Molecular Devices).
(§1) Inhibition by the antagonists was expressed as the percentage of the peak current amplitude of an EC90 concentration of ATP recorded before the application of antagonist (ATP gave reproducible responses to ATP in the absence of antagonist). Inhibition curves were fitted with the Hill equation (variable slope) using GraphPad Prism 6 (GraphPad Software, San Diego, CA). […] Individual concentration-response curves were generated for individual experiments, and statistical analysis was carried out on the data generated. […] Data are shown as mean ± S.E.M. In all cases n ≥ 3 for all data points.

Another assay addresses T2, P2X7R point mutant V312A (Homo sapiens, UniProt Q99572, I21V/M24R/N16P/N25R/Q22R/R20V/S23N/T19I/V312A/Y26L).
T2 construct: expressed in transfected cells; host or cells: Xenopus laevis oocytes (cRNA injection)
Put plainly: cell-based.

For the next assay, the target named is T3, P2X7R point mutant D92A (Homo sapiens, UniProt Q99572, D92A/I21V/M24R/N16P/N25R/Q22R/R20V/S23N/T19I/Y26L).
T3 construct: expressed in transfected cells; host or cells: Xenopus laevis oocytes (cRNA injection)
Put plainly: Two-electrode voltage clamp of ATP-evoked currents in Xenopus oocytes. The class given is cell-based. As to conditions: EC90 ATP, mean ± S.E.M.

For assay [2], the target named is T4, chimeric P2X7/1 receptor 295–310 (Homo sapiens, UniProt Q99572, E305N/I21V/I310F/K297R/K300V/K306Y/M24R/N16P/N25R/N303G/Q22R/R20V/S23N/T19I/T308H/V304T/Y26L/Y295F/Y298H/Y299F).
T4 construct: expressed in transfected cells; host or cells: Xenopus laevis oocytes (cRNA injection)
Put plainly: cell-based. The class given is cell-based.
Procedure: (§2) Additional point mutants were made using the QuikChange mutagenesis kit (Stratagene California, La Jolla, CA). The production of the correct mutations and absence of coding errors was determined by DNA sequencing (Automated ABI Sequencing Service, University of Leicester, UK). cRNA was generated for the mutants and 50 nl (50 ng) was injected into manually defoliculated stage V Xenopus laevis oocytes using an Inject+Matic microinjector (J.A. Gabay, Inject+Matic, Geneva, Switzerland). Injected oocytes were stored at 16°C in ND96 buffer [in millimolar concentrations, NaCl 96, KCl 2, CaCl2 1.8, MgCl2 1, sodium pyruvate 5, and HEPES 5 (pH 7.6) supplemented with 50 μg/ml gentamycin and 50 μg/ml tetracycline]. Three to seven days postinjection two-electrode voltage clamp recordings were made from oocytes bathed in divalent-free ND96 buffer (in millimolar concentrations, NaCl 96, KCl 2, sodium pyruvate 5, HEPES 5, and 0.1 flufenamic acid, pH 7.6). Oocytes were voltage clamped at a holding potential of −60 mV with a GeneClamp500B amplifier (Molecular Devices).
as §1

In a further assay the target is T5, P2X7R point mutant T90V (Homo sapiens, UniProt Q99572, I21V/M24R/N16P/N25R/Q22R/R20V/S23N/T19I/T90V/Y26L).
T5 construct: expressed in transfected cells; host or cells: Xenopus laevis oocytes (cRNA injection)
Put plainly: Two-electrode voltage clamp of ATP-evoked currents in Xenopus oocytes. In kind it is cell-based. To be noted: EC90 ATP, mean ± S.E.M.

In assay [3] the target is T6, chimeric P2X7/1 receptor 170–177 (Homo sapiens, UniProt Q99572, A172V/A176I/E174D/E175D/I170V/I21V/M24R/N16P/N25R/Q22R/R20V/S23N/T19I/V173D/Y26L).
T6 construct: expressed in transfected cells; host or cells: Xenopus laevis oocytes (cRNA injection)
T6 sequence (Q99572 1-595 N16P/T19I/R20V/I21V/Q22R/S23N/M24R/N25R/Y26L/I170V/A172V/V173D/E174D/E175D/A176I): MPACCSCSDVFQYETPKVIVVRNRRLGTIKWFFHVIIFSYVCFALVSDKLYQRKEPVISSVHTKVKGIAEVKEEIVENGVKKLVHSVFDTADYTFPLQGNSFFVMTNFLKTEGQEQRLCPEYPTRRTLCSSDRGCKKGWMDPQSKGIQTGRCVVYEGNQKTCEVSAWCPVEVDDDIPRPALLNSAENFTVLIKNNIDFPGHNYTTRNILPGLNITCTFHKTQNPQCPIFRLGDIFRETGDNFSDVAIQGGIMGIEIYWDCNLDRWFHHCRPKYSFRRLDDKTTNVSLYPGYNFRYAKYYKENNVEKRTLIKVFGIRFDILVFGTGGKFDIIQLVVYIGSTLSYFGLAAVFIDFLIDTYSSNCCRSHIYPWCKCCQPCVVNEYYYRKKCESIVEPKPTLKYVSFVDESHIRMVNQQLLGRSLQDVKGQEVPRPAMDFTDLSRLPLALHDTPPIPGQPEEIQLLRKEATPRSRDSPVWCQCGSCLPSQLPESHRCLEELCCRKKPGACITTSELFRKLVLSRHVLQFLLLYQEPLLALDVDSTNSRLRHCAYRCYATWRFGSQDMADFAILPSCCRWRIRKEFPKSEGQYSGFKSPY
The description is as above. The class given is cell-based.
Procedure: as §2, §1

The next assay deals with T7, P2X7R point mutant Y299C (Homo sapiens, UniProt Q99572, I21V/M24R/N16P/N25R/Q22R/R20V/S23N/T19I/Y26L/Y299C).
T7 construct: expressed in transfected cells; host or cells: Xenopus laevis oocytes (cRNA injection)
Described as above. The class given is cell-based. As to conditions: EC90 ATP, mean ± S.E.M.

The target in a further assay is T8, P2X7R point mutant S86A (Homo sapiens, UniProt Q99572, I21V/M24R/N16P/N25R/Q22R/R20V/S23N/S86A/T19I/Y26L).
T8 construct: expressed in transfected cells; host or cells: Xenopus laevis oocytes (cRNA injection)
The assay is described as above. In kind it is cell-based. As to conditions: EC90 ATP, mean ± S.E.M.

Assay [4] concerns the target T9, chimeric P2X7/1 receptor 105–114 (Homo sapiens, UniProt Q99572, E112P/G113K/I21V/K110V/L109I/M24R/N16P/N25R/Q22R/R20V/S23N/T19I/Y26L).
T9 construct: expressed in transfected cells; host or cells: Xenopus laevis oocytes (cRNA injection)
T9 sequence (Q99572 1-595 N16P/T19I/R20V/I21V/Q22R/S23N/M24R/N25R/Y26L/L109I/K110V/E112P/G113K): T6 sequence (Q99572 1-595 N16P/T19I/R20V/I21V/Q22R/S23N/M24R/N25R/Y26L/I170V/A172V/V173D/E174D/E175D/A176I) with L109I, K110V, E112P, G113K, V170I, V172A, D173V, D174E, D175E, I176A
The assay is described as above. In kind it is cell-based.
Procedure: as §2, §1

Another assay has as its target T10, P2X7R point mutant A91C (Homo sapiens, UniProt Q99572, A91C/I21V/M24R/N16P/N25R/Q22R/R20V/S23N/T19I/Y26L).
T10 construct: expressed in transfected cells; host or cells: Xenopus laevis oocytes (cRNA injection)
Put plainly: cell-based.

For orientation: IC50 means the concentration at which inhibition is half-maximal. A low value points to greater potency in that assay.

Residue numbers refer to the chain shown, from its start.

T3 sequence (Q99572 whole entry N16P/T19I/R20V/I21V/Q22R/S23N/M24R/N25R/Y26L/D92A): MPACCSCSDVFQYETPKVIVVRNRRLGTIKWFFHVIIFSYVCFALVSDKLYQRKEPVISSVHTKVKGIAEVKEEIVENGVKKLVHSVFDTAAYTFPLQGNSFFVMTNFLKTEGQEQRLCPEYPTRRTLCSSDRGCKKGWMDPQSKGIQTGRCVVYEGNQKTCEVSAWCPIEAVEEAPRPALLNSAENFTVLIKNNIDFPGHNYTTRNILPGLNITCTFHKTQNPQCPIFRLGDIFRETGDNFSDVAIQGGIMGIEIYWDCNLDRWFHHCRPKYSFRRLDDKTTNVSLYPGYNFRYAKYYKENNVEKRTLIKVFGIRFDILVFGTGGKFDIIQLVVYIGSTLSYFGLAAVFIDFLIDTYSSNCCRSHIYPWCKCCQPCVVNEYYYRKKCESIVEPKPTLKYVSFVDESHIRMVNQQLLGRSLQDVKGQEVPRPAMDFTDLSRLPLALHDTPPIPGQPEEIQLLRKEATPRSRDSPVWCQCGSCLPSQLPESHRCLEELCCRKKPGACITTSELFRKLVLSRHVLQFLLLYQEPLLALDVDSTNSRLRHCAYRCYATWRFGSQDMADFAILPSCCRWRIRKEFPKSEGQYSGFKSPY
T4 sequence (Q99572 1-595 with the stated changes): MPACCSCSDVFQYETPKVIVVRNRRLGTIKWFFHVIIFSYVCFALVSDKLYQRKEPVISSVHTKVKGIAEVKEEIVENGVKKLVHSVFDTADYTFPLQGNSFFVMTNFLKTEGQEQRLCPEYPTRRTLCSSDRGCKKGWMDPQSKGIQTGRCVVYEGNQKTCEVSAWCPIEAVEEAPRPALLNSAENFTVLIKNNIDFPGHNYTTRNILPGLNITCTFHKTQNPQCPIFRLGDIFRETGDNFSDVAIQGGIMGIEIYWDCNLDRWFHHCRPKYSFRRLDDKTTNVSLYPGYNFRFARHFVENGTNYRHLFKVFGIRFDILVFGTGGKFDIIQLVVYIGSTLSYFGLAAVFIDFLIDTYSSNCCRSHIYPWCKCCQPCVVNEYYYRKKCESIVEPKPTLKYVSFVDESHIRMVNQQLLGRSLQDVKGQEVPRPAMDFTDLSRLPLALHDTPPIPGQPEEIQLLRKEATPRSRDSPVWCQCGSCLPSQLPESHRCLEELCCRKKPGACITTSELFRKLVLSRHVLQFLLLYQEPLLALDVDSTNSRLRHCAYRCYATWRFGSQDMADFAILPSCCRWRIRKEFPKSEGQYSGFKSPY
T2 sequence (Q99572 whole entry N16P/T19I/R20V/I21V/Q22R/S23N/M24R/N25R/Y26L/V312A): as the sequence (Q99572 whole entry N16P/T19I/R20V/I21V/Q22R/S23N/M24R/N25R/Y26L/D92A) above, with A92D, V312A counted along it
T10 sequence (Q99572 whole entry N16P/T19I/R20V/I21V/Q22R/S23N/M24R/N25R/Y26L/A91C): as the sequence (Q99572 whole entry N16P/T19I/R20V/I21V/Q22R/S23N/M24R/N25R/Y26L/D92A) above, with A91C, A92D counted along it
T8 sequence (Q99572 whole entry N16P/T19I/R20V/I21V/Q22R/S23N/M24R/N25R/Y26L/S86A): as the sequence (Q99572 whole entry N16P/T19I/R20V/I21V/Q22R/S23N/M24R/N25R/Y26L/D92A) above, with S86A, A92D counted along it
T5 sequence (Q99572 whole entry N16P/T19I/R20V/I21V/Q22R/S23N/M24R/N25R/Y26L/T90V): as the sequence (Q99572 whole entry N16P/T19I/R20V/I21V/Q22R/S23N/M24R/N25R/Y26L/D92A) above, with T90V, A92D counted along it
T7 sequence (Q99572 whole entry N16P/T19I/R20V/I21V/Q22R/S23N/M24R/N25R/Y26L/Y299C): as the sequence (Q99572 whole entry N16P/T19I/R20V/I21V/Q22R/S23N/M24R/N25R/Y26L/D92A) above, with A92D, Y299C counted along it
Procedure for P2X7R point mutant A91C: (§3) Injected oocytes were stored at 16°C in ND96 buffer [in millimolar concentrations, NaCl 96, KCl 2, CaCl2 1.8, MgCl2 1, sodium pyruvate 5, and HEPES 5 (pH 7.6) supplemented with 50 μg/ml gentamycin and 50 μg/ml tetracycline]. Three to seven days postinjection two-electrode voltage clamp recordings were made from oocytes bathed in divalent-free ND96 buffer (in millimolar concentrations, NaCl 96, KCl 2, sodium pyruvate 5, HEPES 5, and 0.1 flufenamic acid, pH 7.6). Oocytes were voltage clamped at a holding potential of −60 mV with a GeneClamp500B amplifier (Molecular Devices).
as §1
Procedure for P2X7R point mutant D92A: as §3, §1
Procedure for P2X7R point mutant S86A: as §2
(§4) Inhibition by the antagonists was expressed as the percentage of the peak current amplitude of an EC90 concentration of ATP recorded before the application of antagonist (ATP gave reproducible responses to ATP in the absence of antagonist). […]
Procedure for P2X7R point mutant T90V: as §2, §4
Procedure for P2X7R point mutant V312A: as §3, §1
Procedure for P2X7R point mutant Y299C: as §2, §4

`COc1ccc(CC(=O)NC(N=C(NC#N)Nc2cccc3ncccc23)C(C)(C)C)cc1OC` (centres unmarked) [A740003, N-[1-[[(cyanoamino)(5-quinolinylamino)methylene]amino]-2,2-dimethylpropyl]-3,4-dimethoxybenzeneacetamide]: the IC50 was 0.0794 µM in assay [1]; 0.398 µM at P2X7R point mutant V312A; 7.94 µM against P2X7R point mutant D92A; 0.501 µM in assay [2]; 0.398 µM against P2X7R point mutant T90V; 0.0631 µM in assay [3]. Moreover, the IC50 against P2X7R point mutant Y299C was 0.1 µM; against P2X7R point mutant S86A, 0.0794 µM; in assay [4], 0.1 µM; at P2X7R point mutant A91C it was 2.51 µM. The “effect on antagonist sensitivity relative to P2X7-2Nβ” value in assay [1] (chimera 210–217) is recorded as “unaffected”. The “effect on antagonist potency relative to P2X7-2Nβ” value in assay [3] (chimera 170–177) and in assay [4] (chimera 105–114) was “no effect” throughout.
For `Cl.Clc1cccc(-c2nnnn2Cc2cccnc2)c1Cl.O` [A438079, 3-(5-(2,3-dichlorophenyl)-1H-tetrazol-1-yl)methyl pyridine hydrochloride hydrate], the IC50 is 0.251 µM in assay [1]; 5.01 µM on P2X7R point mutant V312A; over 100 µM against P2X7R point mutant D92A; 10 µM in assay [2]; 5.01 µM against P2X7R point mutant T90V; 0.631 µM in [3]. For the same compound, the IC50 on P2X7R point mutant Y299C is 0.251 µM; at P2X7R point mutant S86A it was 1 µM; in assay [4] it was 0.501 µM; against P2X7R point mutant A91C, 20 µM.

The record behind these values is PMC5896373 (Molecular Pharmacology, 2018).
